Results as given in US9867794B2, “Regulation of osteopontin” (Pathologica LLC, priority 2007, dated 2018).
“And” between values parts separate entries of the source, which are not always exact repeats. Equal entries are not always repeated.

Assays:
CD14/16++ cells = assay: Yield of CD14/16++ cells in culture, flow cytometry; type: cell-based, human; details: 10 μM MGBG; for % Reduction 14/16, Average: 5th day
ADA = assay: Microarray analysis of mononuclear cells, ADA; type: cell-based, human; details: for ADA signal +, Average: 10 μM MGBG
Experimental: Blood samples were obtained from HIV infected patients (N=9) with positive viral load and reduced CD4 counts, and non-HIV infected, healthy controls (N=6). Blood was collected into heparin anticoagulant tubes and mononuclear cells were isolated by Percoll gradient centrifugation. The cells from each sample were split into 2: one-half receives MGBG at concentration of 10 μM and the other half received no treatment. All samples were then cultured overnight in RPMI media with 10% fetal bovine serum at 37° C. under non-adherent conditions. The next day cells were collected by centrifugation, washed one time with PBS, and lysed by resuspension in TRIZOL, and total RNA was prepared according to manufacturer's instructions (Invitrogen, Carlsbad, Calif.). […] The RNA was then amplified for microarray analysis using a 2 cycle amplification protocol according to the manufacturer's instructions (Affymetrix, Santa Clara, Calif.). The amplified RNAs were then hybridized to Human Genome U133 plus 2.0 microarrays (Affymetrix) and expression data was obtained using an Affymetrix scanner and GCOS protocols. Microarray data was analyzed with GeneSpring Microarray Suite. Results were normalized using a set of 100 probe sets determined by the manufacturer to have relatively invariant expression across most cell types.

SPP1 = assay: Quantitative RT-PCR, unsorted mononuclear cells, SPP1; type: cell-based, human
Experimental: (§1) To evaluate the effect of MGBG on gene expression, blood samples were obtained from patients (N=18, 10 HIV-infected and 8 Healthy Controls). Mononuclear cells were isolated via Percoll gradient centrifugation. The cells were split into two tubes, one treated with 10 μM of MGBG and the other non-treated. The cells were then cultured overnight in RPMI media plus 10% fetal bovine serum at 37 C under non-adherent conditions, collected, lysed using Trizol solution, and total RNA prepared according to manufacturer's instructions (Invitrogen, Carlsbad, Calif.).
(§2) Approximately 200 ng of total RNA prepared from each sample was converted to cDNA using the First Strand cDNA Synthesis Kit for RT-PCR [AMV] kit (Roche Applied Diagnostics, Indianapolis, Ind.) according to manufacturer's instructions. Around 5 ng of cDNA sample was then used for PCR performed on a LightCycler (Roche Applied Diagnostics, Indianapolis, Ind.) using the LightCycler FastStart DNA Master SYBR Green I kit. PCR conditions are as follows: 1 cycle of denaturation at 95° C. for 10 minutes, followed by 45 cycles of 95° C. for 10 seconds, 68° C. for 10 seconds, and 72° C. for 16 seconds.
(§3) The sequences of gene-specific primers evaluated are listed below. All samples were also amplified with the human β-actin LightCycler-Primer set (Roche Diagnostics).

IL1RN = assay: Quantitative RT-PCR, unsorted mononuclear cells, IL1RN; type: cell-based, human
Experimental: as §1, §2, §3

IL24 = assay: Quantitative RT-PCR, unsorted mononuclear cells, IL24; type: cell-based, human
Experimental: as §1, §2, §3

G1P3 = assay: Quantitative RT-PCR, unsorted mononuclear cells, G1P3; type: cell-based, human
Experimental: as §1, §2, §3

MX2 = assay: Quantitative RT-PCR, unsorted mononuclear cells, MX2; type: cell-based, human
Experimental: as §1, §2, §3

IL6 = assay: Quantitative RT-PCR, unsorted mononuclear cells, IL6; type: cell-based, human
Experimental: as §1, §2, §3

adenosine deaminase = assay: QRT-PCR in CD14/CD16-separated cell fractions, adenosine deaminase RNA; type: cell-based, human; details: 10 μM MGBG
Experimental: The changes induced by MGBG in different blood cell types were determined for osteopontin and adenosine deaminase and 7 other genes. For this experiment, blood samples were obtained from 6 healthy controls (3 men/3 women from 20 to 55 years of age) and mononuclear cells were isolated via Percoll gradient centrifugation. The cells were then incubated for 3 hours in RPMI media plus 10% fetal bovine serum at 37 C. At that point MGBG was added to 10 μM to half of each sample and then the cells were incubated at 37 C for 20 more hours. The cells were then bound to magnetic beads coated with antibodies to human CD16. Bound cells (CD16 expressing) were separated from unbound cells using an AutoMACs according to manufacturer's instructions (Miltenyi, Auburn Calif.). Then CD16+ cells are released from the magnetic beads and both the CD16+ and CD16− cells are combined with magnetic beads coated with antibodies to human CD14. Antibody bound and unbound cells were then separated using the AutoMACs machine. […] Cells that neither express CD16 nor CD14 (the −/− Cells). This is mostly T lymphocytes; 2. Cells that only express CD16. This includes contaminating granulocytes not removed by Percoll centrifugation and CD16+ monocytes with very low CD14 expression; 3. Cells that express both CD16 and CD14. This includes monocytes that are expressing CD16+ and macrophages (which express high levels of both); and 4. Cells that only express CD14. This would include most normal human monocytes. After separation, cells of each fraction are washed with PBS and the number of viable cells determined by trypan blue exclusion. RNA is then prepared from each cell group using TRIZOL, according to manufacturer's instructions.

[1] = tested on: CD14+ macrophages; CD16+/CD14− cells; assay: Phenotypic analysis of cells targeted by MGBG; type: cell-based; details: increasing concentrations of MGBG
Experimental: (§4) Additionally, cells being targeted by MGBG were investigated. […] To elucidate the effects of MGBG and OPN on cell motility, migration assays were conducted. MGBG at 10 μM inhibited macrophage Osteopontin production from >200 ng/mL to nondetectable levels while simultaneously inhibiting HeLa cell invasion into a Matrigel matrix.

Osteopontin = assay: Macrophage Osteopontin production in migration assays; type: cell-based; details: 10 μM MGBG; from >200 ng/mL without drug
Experimental: as §4

[2] = 10 μM MGBG overnight, untreated vs treated, negative = fold reduction, individual samples
[3] = 10 μM MGBG, all unsorted samples
[4] = 10 μM MGBG overnight, individual samples

CC(/C=N/NC(=N)N)=N\NC(=N)N [MGBG, 1,1′ [methylethanediylidene]dinitrilodiguanidine]
% Reduction 14/16 (CD14/16++ cells; 5th day of culture, individual donor samples (HIV or healthy)): 26% and 53% and 91% and 54% and 61% and <0% and 71% | % Reduction 14/16, Average (CD14/16++ cells; average of HIV samples): 60.3% | % Reduction 14/16, Average (CD14/16++ cells; average of healthy samples): 57.5% | ADA signal +, Average (ADA; average of HIV samples): 4029 | ADA signal +, Average (ADA; average of control samples (C6-, M6-177)): 5520 | ADA fold change, MGBG/ON ratio (up-regulation) (ADA; 10 μM, individual donor samples): 3.2 fold (2×) and 2.9 fold and 5.6 fold and 3.6 fold (2×) and 3.7 fold and 4.2 fold and 51.2 fold and 14.6 fold and 5.9 fold and 2.0 fold and 18.3 fold and 2.3 fold and 22.3 fold | ADA regulation by MGBG (ADA; all samples tested): consistently up-regulated | ADA signal + (ADA; presence of 10 μM MGBG overnight, individual donor samples): 769 and 6724 and 6874 and 1964 and 7488 and 5384 and 2900 and 5895 and 5781 and 6428 and 6731 and 1845 and 4290 and 832 and 5472 | Fold change SPP1 by QRT-PCR (SPP1; [2]): −20.11 fold and −83.87 fold and −6.59 fold and −1.30 fold and −8.82 fold and −95.67 fold and −7.89 fold and −1.95 fold and −46.21 fold and −5.90 fold and −2.11 fold and −6.15 fold and −1.28 fold and −467.88 fold and −18.90 fold (2×) and −300.25 fold and −2.14 fold | Fold change SPP1, AVERAGE (SPP1; [3]): −60.9 fold | Fold change SPP1, MAX (SPP1; [3]): −1.3 fold | Fold change SPP1, MIN (SPP1; [3]): −467.9 fold | SPP1 fold changes between the untreated and the treated (SPP1; certain unsorted samples): up to 300 fold | SPP1 % >2 fold Changed (SPP1; share of samples, 10 μM MGBG): 83% | Fold change IL1RN by QRT-PCR (IL1RN; [2]): −10.41 fold and −3.73 fold and 1.12 fold and −1.73 fold and −1.36 fold and −14.22 fold and −1.87 fold and −1.78 fold and 8.63 fold and −2.27 fold and 1.59 fold and −8.17 fold and −19.56 fold and −1.77 fold and −4.92 fold and −2.31 fold and −8.28 fold and −17.75 fold | Fold change IL1RN, AVERAGE (IL1RN; [3]): −4.9 fold | Fold change IL1RN, MAX (IL1RN; [3]): 8.6 fold | Fold change IL1RN, MIN (IL1RN; [3]): −19.6 fold | IL1RN % >2 fold Changed (IL1RN; share of samples, 10 μM MGBG): 55% | samples with IL1RN down-regulated (IL1RN; unsorted samples): 15 out of 18 | Fold change IL24 by QRT-PCR (IL24; [2]): 5.35 fold and 1.20 fold and 1.09 fold and −1.13 fold and 1.12 fold and 11.88 fold and 2.57 fold and 2.55 fold and 2.25 fold and 1.01 fold and −1.17 fold and 1.92 fold and 1.32 fold and 1.79 fold and 2.50 fold and −2.41 fold and −1.48 fold and −1.30 fold | Fold change IL24, AVERAGE (IL24; [3]): 1.6 fold | Fold change IL24, MAX (IL24; [3]): 11.9 fold | Fold change IL24, MIN (IL24; [3]): −2.4 fold | IL24 % >2 fold Changed (IL24; share of samples, 10 μM MGBG): 33% | IL24 regulation by MGBG (IL24; unsorted samples): did not exhibit a consistent pattern of change | Fold change G1P3 by QRT-PCR (G1P3; [4]): 1.92 fold and −1.25 fold (2×) and 1.31 fold and −2.03 fold and −1.14 fold (2×) and −2.04 fold and 2.13 fold and 1.22 fold (2×) and −2.99 fold and −6.63 fold and −1.95 fold and −2.85 fold and 1.47 fold and −1.66 fold and 1.68 fold | G1P3 AVERAGE (G1P3; 10 μM MGBG, all samples): 0.96 fold | G1P3 MAX (G1P3; 10 μM MGBG, all samples): 2.13 fold | G1P3 MIN (G1P3; 10 μM MGBG, all samples): −6.63 fold | Fold change MX2 by QRT-PCR (MX2; [4]): 2.03 fold and −1.09 fold and 1.16 fold (2×) and −1.01 fold and 4.35 fold and 1.56 fold and −2.81 fold and 3.07 fold and −1.33 fold and −1.77 fold and −3.27 fold and 1.36 fold and 1.13 fold and −2.11 fold and −2.85 fold and 1.23 fold and 6.06 fold | MX2 AVERAGE (MX2; 10 μM MGBG, all samples): 1.55 fold | MX2 MAX (MX2; 10 μM MGBG, all samples): 6.06 fold | MX2 MIN (MX2; 10 μM MGBG, all samples): −3.27 fold | Fold change IL6 by QRT-PCR (IL6; [4]): −5.31 fold and 3.71 fold and 1.04 fold and 1.01 fold and −2.93 fold and −4.17 fold and 2.20 fold and 2.83 fold and −2.71 fold and −4.06 fold and 1.74 fold (2×) and 1.30 fold and 1.46 fold and −6.15 fold and −1.09 fold and −5.46 fold and 14.72 fold | IL6 AVERAGE (IL6; 10 μM MGBG, all samples): 1.91 fold | IL6 MAX (IL6; 10 μM MGBG, all samples): 14.72 fold | IL6 MIN (IL6; 10 μM MGBG, all samples): −6.15 fold | ADA transcription median change (increase) (adenosine deaminase; CD14+ monocytes, p=0.0156): 10.8 fold | ADA transcription median change (increase) (adenosine deaminase; CD14/CD16++ cells): 2.8 fold | ADA transcription change (adenosine deaminase; Double negative cells and CD16+ cells): did not change significantly | levels of CD16+/CD14− cells [1]: did not affect | yields of CD14+ macrophages [1]: decreasing yields | macrophage Osteopontin production (Osteopontin): nondetectable
